Source: ChEMBL document CHEMBL4334495, “Design and Biological Evaluation of m-Xylene Thioether-Stapled Short Helical Peptides Targeting the HIV-1 gp41 Hexameric Coiled-Coil Fusion Complex” (J Med Chem, 2019)
Active and inactive are the calls of the source. The rule behind the calls is not given here. Starred links: 1 amine or outer side, 2 acyl side, 3 side chain; linkers in the order of their positions; H or OH if unused. Positions of bridges follow the written chain, without caps; N, C: chain ends. Non-standard residues stand in square brackets, D forms with d. Residues, ends and D or L forms follow the SMILES beside them. ξ: configuration not given here. mXylylene = c1cc(C[*:1])cc(C[*:2])c1; ξhCys = NC(CCS)C(=O)O

Legend:
[1] = molecular target: Envelope glycoprotein gp160 (Human immunodeficiency virus 1) (UniProt Q6QLK5); assay: Binding affinity to HIV1 GP41 using GP41 NHR derived N36 peptide assessed as formation of oligomeric complex at 100 uM incubated for 30 mins by Coomassie blue R250 staining based Native-PAGE analysis
Sequence of Envelope glycoprotein gp160 (Human immunodeficiency virus 1) (Q6QLK5 1-814): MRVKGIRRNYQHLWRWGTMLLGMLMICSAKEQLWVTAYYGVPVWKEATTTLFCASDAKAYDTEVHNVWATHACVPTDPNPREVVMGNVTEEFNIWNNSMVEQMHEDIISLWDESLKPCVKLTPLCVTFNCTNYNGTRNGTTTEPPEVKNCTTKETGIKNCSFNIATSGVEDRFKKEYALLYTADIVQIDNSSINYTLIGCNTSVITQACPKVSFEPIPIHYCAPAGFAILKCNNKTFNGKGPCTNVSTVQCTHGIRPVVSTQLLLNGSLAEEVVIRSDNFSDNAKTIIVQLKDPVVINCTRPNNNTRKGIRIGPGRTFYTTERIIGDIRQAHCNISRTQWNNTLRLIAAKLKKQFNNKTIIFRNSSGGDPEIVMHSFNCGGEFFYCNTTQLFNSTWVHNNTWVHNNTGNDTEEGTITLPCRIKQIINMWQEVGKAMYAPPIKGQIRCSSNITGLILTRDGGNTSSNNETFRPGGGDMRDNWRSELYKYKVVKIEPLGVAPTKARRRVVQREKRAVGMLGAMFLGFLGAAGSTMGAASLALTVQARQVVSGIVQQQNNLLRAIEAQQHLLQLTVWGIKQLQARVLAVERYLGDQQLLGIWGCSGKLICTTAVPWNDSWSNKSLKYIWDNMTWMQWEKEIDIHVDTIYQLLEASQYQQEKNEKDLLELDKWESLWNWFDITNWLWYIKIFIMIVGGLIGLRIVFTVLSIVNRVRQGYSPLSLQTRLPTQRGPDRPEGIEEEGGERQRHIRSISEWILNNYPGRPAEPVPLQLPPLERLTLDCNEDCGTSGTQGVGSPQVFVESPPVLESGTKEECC

[2] = system: Human immunodeficiency virus 1; assay: (§1) Synergistic antiviral activity against X4 tropic HIV-1 subtype-B 3B infected in human MT2 cells or CEMx174 5.25 M7 cells assessed as reduction in p24 Gag protein production by measuring combination index at 12:1 compound to HP23 ratio measured at 4 days post-infection by ELISA; format: functional, HIV-1 group M
[3] = system: Human immunodeficiency virus 1; assay: (§2) Ratio of EC50 for antiviral activity against X4 tropic HIV-1 subtype-B 3B infected in human MT2 cells or CEMx174 5.25 M7 cells in absence of HP23 to EC50 for antiviral activity against X4 tropic HIV-1 subtype-B 3B infected in human MT2 cells or CEMx174 5.25 M7 cells at 6:1 compound to HP23 ratio; format: functional, HIV-1 group M
[4] = system: Human immunodeficiency virus 1; assay: Ratio of EC50 for antiviral activity against X4 tropic HIV-1 subtype-B 3B infected in human MT2 cells or CEMx174 5.25 M7 cells in absence of HP23 to EC50 for antiviral activity against X4 tropic HIV-1 subtype-B 3B infected in human MT2 cells or CEMx174 5.25 M7 cells at 12:1 compound to HP23 ratio; format: functional, HIV-1 group M
[5] = system: Human immunodeficiency virus 1; assay: Antiviral activity against R5 tropic HIV-1 subtype-B Bal infected in human MT2 cells or CEMx174 5.25 M7 cells assessed as reduction in p24 Gag protein production at 6:1 ratio of compound to HP23 measured at 4 days post-infection by ELISA; format: functional, cell-based, HIV-1 group M; conditions: Human immunodeficiency virus 1, Bal, 96 h
[6] = system: Human immunodeficiency virus 1; assay: Antiviral activity against HIV1 NL4-3 infected in human MT2 cells or CEMx174 5.25 M7 cells assessed as reduction in p24 Gag protein production at 5:1 compound to HP23 ratio measured at 4 days post-infection by ELISA; format: functional, organism-based; conditions: Human immunodeficiency virus 1, NL4-3, 96 h
[7] = system: Human immunodeficiency virus 1; assay: Antiviral activity against HIV1 NL4-3 infected in human MT2 cells or CEMx174 5.25 M7 cells assessed as reduction in p24 Gag protein production at 10:1 compound to HP23 ratio measured at 4 days post-infection by ELISA; format: functional, organism-based; conditions: Human immunodeficiency virus 1, NL4-3, 96 h
[8] = system: Human immunodeficiency virus 1; assay: Antiviral activity against HIV1 NL4-3 infected in human MT2 cells or CEMx174 5.25 M7 cells assessed as reduction in p24 Gag protein production at 20:1 compound to HP23 ratio measured at 4 days post-infection by ELISA; format: functional, organism-based; conditions: Human immunodeficiency virus 1, NL4-3, 96 h
[9] = system: Human immunodeficiency virus 1; assay: as §1, with “T20 resistant HIV1 NL4-3 harboring with V38E/N42S mutant” for “X4 tropic HIV-1 subtype-B 3B”, “7000:1” for “12:1”; format: functional
[10] = system: Human immunodeficiency virus 1; assay: as §1, with “T20 resistant HIV1 NL4-3 harboring with V38E/N42S mutant” for “X4 tropic HIV-1 subtype-B 3B”, “14000:1” for “12:1”; format: functional
[11] = system: Human immunodeficiency virus 1; assay: (§3) Antiviral activity against T20 resistant HIV1 NL4-3 harboring with V38E/N42S mutant infected in human MT2 cells or CEMx174 5.25 M7 cells assessed as reduction in p24 Gag protein production at 7000:1 compound to HP23 ratio measured at 4 days post-infection by ELISA; format: functional, organism-based
[12] = system: Human immunodeficiency virus 1; assay: as §3, with “Synergistic antiviral” for “Antiviral”, “V38E/N42T” for “V38E/N42S”, “production by measuring combination index” for “production”, “600:1” for “7000:1”; format: functional
[13] = system: Human immunodeficiency virus 1; assay: Antiviral activity against T20 resistant HIV1 NL4-3 harboring with V38E/N42T mutant infected in human MT2 cells or CEMx174 5.25 M7 cells assessed as reduction in p24 Gag protein production at 600:1 compound to HP23 ratio measured at 4 days post-infection by ELISA; format: functional, organism-based
[14] = system: Human immunodeficiency virus 1; assay: Synergistic antiviral activity against T2635 resistant HIV1 LAI harboring Q66R mutant infected in human MT2 cells or CEMx174 5.25 M7 cells assessed as reduction in p24 Gag protein production by measuring combination index at 12.5:1 compound ratio measured at 4 days post infection by ELISA; format: functional, M:B_Lai
[15] = system: Human immunodeficiency virus 1; assay: Synergistic antiviral activity against T2635 resistant HIV1 LAI harboring Q66R mutant infected in human MT2 cells or CEMx174 5.25 M7 cells assessed as reduction in p24 Gag protein production by measuring combination index at 50:1 compound ratio measured at 4 days post infection by ELISA; format: functional, M:B_Lai
[16] = system: Human immunodeficiency virus 1; assay: as §2, with “T2635 resistant HIV1 LAI harboring Q66R mutant” for “X4 tropic HIV-1 subtype-B 3B”, “to” for “to EC50 for”, “50:1 ratio of” for “6:1”, “HP23” for “HP23 ratio”; format: functional, M:B_Lai
[17] = Metabolic stability of the compound assessed as Proteinase K (unknown origin)-mediated compound hydrolysis by measuring parent compound remaining at 3 to 100 uM after 4 hrs by RP-HPLC analysis; format: ADME; conditions: human, read-out: Stability
[18] = Metabolic stability in rat liver homogenates assessed as parent compound remaining at 3 to 100 uM after 2 hrs by RP-HPLC analysis; format: ADME, tissue-based; conditions: read-out: Stability
[19] = molecular target: Envelope glycoprotein gp160 (Human immunodeficiency virus 1) (UniProt Q6QLK5); assay: Ratio of EC50 for inhibition of HIV1 gp41-induced cell-cell fusion between viral envelope expressing human HL2/3 cells to CD4/CCR5 receptor expressing TZM-bl cells in absence of HP23 to EC50 for inhibition of HIV1 gp41-induced cell-cell fusion between viral envelope expressing human HL2/3 cells to CD4/CCR5 receptor expressing TZM-bl cells at 1:1 ratio of hCS6ERE to compound
[20] = system: Human immunodeficiency virus 1; assay: Antiviral activity against X4 tropic HIV-1 subtype-B 3B infected in human MT2 cells or CEMx174 5.25 M7 cells assessed as reduction in p24 Gag protein production at 12:1 ratio of hCS6ERE to compound measured at 4 days post-infection by ELISA; format: functional, cell-based, HIV-1 group M; conditions: Human immunodeficiency virus 1, 3B, 96 h
[21] = system: Human immunodeficiency virus 1; assay: as §2, with “hCS6ERE” for “HP23”, “6:1 ratio of hCS6ERE to” for “6:1”, “compound” for “compound to HP23 ratio”; format: functional, HIV-1 group M
[22] = system: Human immunodeficiency virus 1; assay: (§4) Ratio of EC50 for antiviral activity against T20 resistant HIV1 NL4-3 harboring with V38E/N42T mutant infected in human MT2 cells or CEMx174 5.25 M7 cells in absence of hCS6ERE to EC50 for Antiviral activity against T20 resistant HIV1 NL4-3 harboring with V38E/N42T mutant infected in human MT2 cells or CEMx174 5.25 M7 cells at 300:1 hCS6ERE to compound ratio; format: functional
[23] = system: Human immunodeficiency virus 1; assay: Antiviral activity against T2635 resistant HIV1 LAI harboring Q66R mutant infected in human MT2 cells or CEMx174 5.25 M7 cells assessed as reduction in p24 Gag protein production at 12.5:1 ratio of hCS6ERE to compound measured at 4 days post infection by ELISA; format: functional, organism-based, M:B_Lai
[24] = system: Human immunodeficiency virus 1; assay: as §4, with “T2635” for “T20”, “LAI” for “NL4-3”, “Q66R” for “with V38E/N42T”, “antiviral” for “EC50 for Antiviral”, “12.5:1 ratio of” for “300:1”, “compound” for “compound ratio”; format: functional, M:B_Lai

Compound: CC[C@H](C)[C@H](NC(C)=O)C(=O)N[C@@H](CCC(=O)O)C(=O)N[C@@H](CCC(=O)O)C(=O)N[C@@H](CC(C)C)C(=O)N[C@H](C(=O)NC1CCSCc2cccc(c2)CSCCC(C(=O)N[C@@H](CCC(N)=O)C(=O)N[C@@H](CCC(N)=O)C(=O)N[C@@H](CCCNC(=N)N)C(=O)N[C@@H](CCCCN)C(=O)N[C@@H](CC(N)=O)C(=O)N[C@@H](CCC(=O)O)C(=O)N[C@@H](CCC(=O)O)C(=O)N[C@@H](C)C(=O)N[C@@H](CC(C)C)C(=O)N[C@@H](CCCNC(=N)N)C(=O)N[C@@H](CCC(=O)O)C(=O)N[C@@H](CC(C)C)C(N)=O)NC(=O)[C@H](CCC(N)=O)NC(=O)[C@H](C)NC(=O)[C@H](C)NC1=O)[C@@H](C)CC (some centres undefined) (Ac-IEELI[ξhCys]AAQ[ξhCys]QQRKNEEALREL-NH2; linker 6-10 via mXylylene)
- Activity [1]: Active
- CI [2]: 0.7
- Ratio EC50 [3]: 3.6
- Ratio EC50 [4]: 2.4
- EC50 [5]: 6 nM
- EC50 [6]: 4.4 nM
- EC50 [7]: 9 nM
- EC50 [8]: 14 nM
- CI [9]: 0.6
- CI [10]: 0.6
- EC50 [11]: 2520 nM
- CI [12]: 0.7
- EC50 [13]: 468 nM
- CI [14]: 0.7
- CI [15]: 0.4
- Ratio EC50 [16]: 3.3
- remaining at 4 h, up to 100 µM [17]: 100%
- remaining at 2 h, up to 100 µM [18]: 27.4%

Compound: H-EMTWEEWEKKIEEYTKKIEEILK-OH
- Ratio EC50 [19]: 1
- EC50 [20]: 0.9 nM
- Ratio EC50 [21]: 1.9
- Ratio EC50 [22]: 2.9
- EC50 [23]: 1.8 nM
- Ratio EC50 [24]: 2.7
